This data set deals with CCRIS mutagenicity, Ames/micronucleus/aberration tests. Briefly: CCRIS mutagenicity studies.
Setting [1] is: Test System: AMES SALMONELLA TYPHIMURIUM, Strain/Indicator: TA98, Metabolic Activation: NONE, Method: PREINCUBATION
Setting [2] is: Test System: AMES SALMONELLA TYPHIMURIUM, Strain/Indicator: TA100, Metabolic Activation: NONE, Method: PREINCUBATION
Setting [3] is: Test System: AMES SALMONELLA TYPHIMURIUM, Strain/Indicator: TA100, Metabolic Activation: NONE, Method: STANDARD PLATE.

Active and inactive are the calls of the source. How the calls were made is not given here.

For `CCC(C)(C)c1ccc(O)cc1`, the mutagenic call runs as follows: (Test System: AMES SALMONELLA TYPHIMURIUM, Strain/Indicator: TA97, Metabolic Activation: HAMSTER, LIVER, S-9, AROCLOR 1254 (10%), Method: PREINCUBATION) “inactive; negative”; (Test System: AMES SALMONELLA TYPHIMURIUM, Strain/Indicator: TA97, Metabolic Activation: HAMSTER, LIVER, S-9, AROCLOR 1254 (30%), Method: PREINCUBATION) “inactive; negative”; (Test System: AMES SALMONELLA TYPHIMURIUM, Strain/Indicator: TA97, Metabolic Activation: NONE, Method: PREINCUBATION) “inactive; negative”; (Test System: AMES SALMONELLA TYPHIMURIUM, Strain/Indicator: TA97, Metabolic Activation: RAT, LIVER, S-9, AROCLOR 1254 (10%), Method: PREINCUBATION) “inactive; negative”; (Test System: AMES SALMONELLA TYPHIMURIUM, Strain/Indicator: TA97, Metabolic Activation: RAT, LIVER, S-9, AROCLOR 1254 (30%), Method: PREINCUBATION) “inactive; negative”; (Test System: AMES SALMONELLA TYPHIMURIUM, Strain/Indicator: TA98, Metabolic Activation: HAMSTER, LIVER, S-9, AROCLOR 1254 (10%), Method: PREINCUBATION) “inactive; negative”. The mutagenic call was “inactive; negative” (Test System: AMES SALMONELLA TYPHIMURIUM, Strain/Indicator: TA98, Metabolic Activation: HAMSTER, LIVER, S-9, AROCLOR 1254 (30%), Method: PREINCUBATION); “inactive; negative” under setting [1]; “inactive; negative” (Test System: AMES SALMONELLA TYPHIMURIUM, Strain/Indicator: TA98, Metabolic Activation: RAT, LIVER, S-9, AROCLOR 1254 (10%), Method: PREINCUBATION); “inactive; negative” (Test System: AMES SALMONELLA TYPHIMURIUM, Strain/Indicator: TA98, Metabolic Activation: RAT, LIVER, S-9, AROCLOR 1254 (30%), Method: PREINCUBATION); “inactive; negative” (Test System: AMES SALMONELLA TYPHIMURIUM, Strain/Indicator: TA100, Metabolic Activation: HAMSTER, LIVER, S-9, AROCLOR 1254 (10%), Method: PREINCUBATION); “inactive; negative” (Test System: AMES SALMONELLA TYPHIMURIUM, Strain/Indicator: TA100, Metabolic Activation: HAMSTER, LIVER, S-9, AROCLOR 1254 (30%), Method: PREINCUBATION). The mutagenic call reads like this: under setting [2], “inactive; negative”; (Test System: AMES SALMONELLA TYPHIMURIUM, Strain/Indicator: TA100, Metabolic Activation: RAT, LIVER, S-9, AROCLOR 1254 (10%), Method: PREINCUBATION) “inactive; negative”; (Test System: AMES SALMONELLA TYPHIMURIUM, Strain/Indicator: TA100, Metabolic Activation: RAT, LIVER, S-9, AROCLOR 1254 (30%), Method: PREINCUBATION) “inactive; negative”; (Test System: AMES SALMONELLA TYPHIMURIUM, Strain/Indicator: TA1535, Metabolic Activation: HAMSTER, LIVER, S-9, AROCLOR 1254 (10%), Method: PREINCUBATION) “inactive; negative”; (Test System: AMES SALMONELLA TYPHIMURIUM, Strain/Indicator: TA1535, Metabolic Activation: HAMSTER, LIVER, S-9, AROCLOR 1254 (30%), Method: PREINCUBATION) “inactive; negative”; (Test System: AMES SALMONELLA TYPHIMURIUM, Strain/Indicator: TA1535, Metabolic Activation: NONE, Method: PREINCUBATION) “inactive; negative”. Besides, the mutagenic call was “inactive; negative” (Test System: AMES SALMONELLA TYPHIMURIUM, Strain/Indicator: TA1535, Metabolic Activation: RAT, LIVER, S-9, AROCLOR 1254 (10%), Method: PREINCUBATION) and “inactive; negative” (Test System: AMES SALMONELLA TYPHIMURIUM, Strain/Indicator: TA1535, Metabolic Activation: RAT, LIVER, S-9, AROCLOR 1254 (30%), Method: PREINCUBATION).

For the compound `N=C1C=CC2=CC(S(=O)(=O)O)=CC(=O)C2=C1NNc1ccc(-c2ccc(N=Nc3cc(S(=O)(=O)O)c4ccccc4c3N)cc2)cc1`, for the setting “Test System: AMES SALMONELLA TYPHIMURIUM, Strain/Indicator: TA98, Metabolic Activation: HAMSTER, LIVER, S-9, Method: PREINCUBATION (PRIVAL METHOD)”, the mutagenic call was “active; positive”.

As for `C[C@]1(O)CC[C@H]2[C@@H]3CCC4=CC(=O)CC[C@]4(C)[C@@]3(F)[C@@H](O)C[C@@]21C`, the mutagenic call (End Point: IN VITRO CHROMOSOMAL ABERRATIONS, Test System: HUMAN PERIPHERAL LYMPHOCYTES, Metabolic Activation: NONE) was “active; positive after 72 hr treatment at 2 lower doses; positive after 48 or 72 hr trea”; the mutagenic call (End Point: IN VIVO MICRONUCLEUS, Test System: BONE MARROW POLYCHROMATIC ERYTHROCYTES, Species: MOUSE, Strain/Sex: SWISS ALBINO/MALE, Route: IP) is “active; positive”; the mutagenic call (Test System: AMES SALMONELLA TYPHIMURIUM, Strain/Indicator: TA97A, Metabolic Activation: NONE, Method: STANDARD PLATE) is “inactive; negative; growth inhibition at highest dose”; the mutagenic call (Test System: AMES SALMONELLA TYPHIMURIUM, Strain/Indicator: TA97A, Metabolic Activation: RAT, LIVER, S-9, PHENOBARBITAL, Method: PREINCUBATION) is “inactive; negative”; the mutagenic call (Test System: AMES SALMONELLA TYPHIMURIUM, Strain/Indicator: TA98, Metabolic Activation: NONE, Method: STANDARD PLATE) was “inactive; negative; growth inhibition at highest dose”; the mutagenic call (Test System: AMES SALMONELLA TYPHIMURIUM, Strain/Indicator: TA98, Metabolic Activation: RAT, LIVER, S-9, PHENOBARBITAL, Method: PREINCUBATION) is “inactive; negative”. For the same compound, the mutagenic call is, setting by setting: under setting [3], “inactive; negative; growth inhibition at highest dose”; (Test System: AMES SALMONELLA TYPHIMURIUM, Strain/Indicator: TA100, Metabolic Activation: RAT, LIVER, S-9, PHENOBARBITAL, Method: PREINCUBATION) “inactive; negative”; (Test System: AMES SALMONELLA TYPHIMURIUM, Strain/Indicator: TA102, Metabolic Activation: NONE, Method: STANDARD PLATE) “inactive; negative; growth inhibition at highest dose”; (Test System: AMES SALMONELLA TYPHIMURIUM, Strain/Indicator: TA102, Metabolic Activation: RAT, LIVER, S-9, PHENOBARBITAL, Method: PREINCUBATION) “inactive; negative”; (Test System: AMES SALMONELLA TYPHIMURIUM, Strain/Indicator: TA1535, Metabolic Activation: NONE, Method: STANDARD PLATE) “inactive; negative; growth inhibition at highest dose”; (Test System: AMES SALMONELLA TYPHIMURIUM, Strain/Indicator: TA1535, Metabolic Activation: RAT, LIVER, S-9, PHENOBARBITAL, Method: PREINCUBATION) “inactive; negative”.

In the case of `c1cc2c3c(c1)C1NC1c1cccc(c1-3)C1NC21` (stereo unspecified), under setting [3], the mutagenic call was “active; positive”.

In the case of `COC(=O)c1oc(NOC(C)=O)c(-c2ccccc2)c1-c1ccccc1`, the mutagenic call was “inactive; negative” under setting [1]; “inactive; negative” (Test System: AMES SALMONELLA TYPHIMURIUM, Strain/Indicator: TA98, Metabolic Activation: RAT, LIVER, S-9, AROCLOR, Method: PREINCUBATION); “inactive; negative” under setting [2]; “inactive; negative” (Test System: AMES SALMONELLA TYPHIMURIUM, Strain/Indicator: TA100, Metabolic Activation: RAT, LIVER, S-9, AROCLOR, Method: PREINCUBATION).

Turning to `COC(=O)/C(C#N)=C/c1ccco1`, the mutagenic call under setting [1] was “inactive; negative”.

For the compound `N[C@@H](CCC(=O)Nc1ccc([N+](=O)[O-])cc1)C(=O)O`, the mutagenic call is, setting by setting: under setting [3], “inactive; negative”; (Test System: AMES SALMONELLA TYPHIMURIUM, Strain/Indicator: TA100, Metabolic Activation: RAT KIDNEY, MICROSOMES, Method: STANDARD PLATE) “inactive; negative”; (Test System: AMES SALMONELLA TYPHIMURIUM, Strain/Indicator: TA100, Metabolic Activation: RAT LIVER, MICROSOMES, Method: STANDARD PLATE) “inactive; negative”.

Regarding `COCCCN(N=O)C(N)=O`, the mutagenic call (Test System: E. COLI B, Strain/Indicator: H/R30R, Metabolic Activation: NONE) is “active; positive” and the mutagenic call (Test System: E. COLI B, Strain/Indicator: HS30R, Metabolic Activation: NONE) was “active; positive”.

Take `CN1COCN(Cc2cnc(Cl)s2)/C1=N/[N+](=O)[O-]`: the mutagenic call reads like this: (End Point: IN VIVO MICRONUCLEUS, Test System: BONE MARROW POLYCHROMATIC ERYTHROCYTES, Species: RAT, Strain/Sex: WISTAR/FEMALE, Route: ORAL (GAVAGE)) “active; positive”; (End Point: IN VIVO MICRONUCLEUS, Test System: POLYCHROMATIC ERYTHROCYTES FROM COLONIC CRYPT EPITHELIAL CELLS, Species: RAT, Strain/Sex: WISTAR/FEMALE, Route: ORAL (GAVAGE)) “active; positive”.

(Values after PubChem BioAssay AID1259407 (Chemical Carcinogenesis Research Information System (CCRIS), 2018).)
